According to PubChem BioAssay (NCI):
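Step 1: Grow cells in 96-well plates. Step 2: Expose to compound for 48 hours at 5 concentrations. Step 3: Interpolate endpoints linearly; if unreached, use highest concentration. TGI marks complete inhibition of growth.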

Key:
Assay in all cases: NCI tumour cell line growth inhibition, 48 h
HS 578T breast = tested on: HS 578T breast
MDA-MB-231 breast = tested on: MDA-MB-231 breast
NCI-H522 lung = tested on: NCI-H522 lung
RXF 393 renal = tested on: RXF 393 renal
T-47D breast = tested on: T-47D breast
MCF7 breast = tested on: MCF7 breast
A549 NSCLC = tested on: A549 NSCLC
OVCAR-5 ovarian = tested on: OVCAR-5 ovarian
A498 renal = tested on: A498 renal
OVCAR-8 ovarian = tested on: OVCAR-8 ovarian
NCI/ADR-RES ovarian = tested on: NCI/ADR-RES ovarian
MDA-N = tested on: MDA-N
MALME-3M melanoma = tested on: MALME-3M melanoma
SK-MEL-5 melanoma = tested on: SK-MEL-5 melanoma
COLO 205 colon = tested on: COLO 205 colon
786-0 renal = tested on: 786-0 renal
K-562 leukemia = tested on: K-562 leukemia
HOP-62 NSCLC = tested on: HOP-62 NSCLC
SNB-75 CNS = tested on: SNB-75 CNS
MDA-MB-435 = tested on: MDA-MB-435
LOX IMVI melanoma = tested on: LOX IMVI melanoma
SN12C renal = tested on: SN12C renal
SF-268 CNS = tested on: SF-268 CNS
U251 CNS = tested on: U251 CNS
SNB-19 CNS = tested on: SNB-19 CNS
KM12 colon = tested on: KM12 colon
CAKI-1 renal = tested on: CAKI-1 renal
HCC-2998 colon = tested on: HCC-2998 colon
NCI-H460 lung = tested on: NCI-H460 lung
EKVX NSCLC = tested on: EKVX NSCLC
HT29 colon = tested on: HT29 colon
SW-620 colon = tested on: SW-620 colon
M14 melanoma = tested on: M14 melanoma
CCRF-CEM leukemia = tested on: CCRF-CEM leukemia
SR leukemia = tested on: SR leukemia
HCT-15 colon = tested on: HCT-15 colon
SK-MEL-2 melanoma = tested on: SK-MEL-2 melanoma
OVCAR-4 ovarian = tested on: OVCAR-4 ovarian
OVCAR-3 ovarian = tested on: OVCAR-3 ovarian
IGROV1 ovarian = tested on: IGROV1 ovarian
SK-OV-3 ovarian = tested on: SK-OV-3 ovarian
PC-3 prostate = tested on: PC-3 prostate
SF-539 CNS = tested on: SF-539 CNS
MOLT-4 leukemia = tested on: MOLT-4 leukemia
HCT-116 colon = tested on: HCT-116 colon
NCI-H226 lung = tested on: NCI-H226 lung
SF-295 CNS = tested on: SF-295 CNS
ACHN renal = tested on: ACHN renal
SK-MEL-28 melanoma = tested on: SK-MEL-28 melanoma
DU-145 prostate = tested on: DU-145 prostate
NCI-H23 lung = tested on: NCI-H23 lung
TK-10 renal = tested on: TK-10 renal
UO-31 renal = tested on: UO-31 renal
BT-549 breast = tested on: BT-549 breast
UACC-62 melanoma = tested on: UACC-62 melanoma
RPMI-8226 leukemia = tested on: RPMI-8226 leukemia
HOP-92 NSCLC = tested on: HOP-92 NSCLC
UACC-257 melanoma = tested on: UACC-257 melanoma

Measured: TGI

CSc1cc(Cl)c(C)cc1S(=O)(=O)NC(=O)NNc1ccccn1
not listed: NCI-H23 lung | TK-10 renal | UO-31 renal | BT-549 breast | UACC-62 melanoma | RPMI-8226 leukemia | HOP-92 NSCLC | UACC-257 melanoma
> 100 µM: all other assays above

Cn1c2c(c3ccccc31)CC(=O)N1CCCCC1C21OCCO1 (centres undefined)
not listed: NCI-H522 lung | K-562 leukemia | LOX IMVI melanoma | SF-539 CNS
> 100 µM: all other assays above
